These results are taken from PubChem BioAssay AID651993 (Sanford-Burnham Center for Chemical Genomics, 2013).

Active and inactive are the calls of the source.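 How the source made its calls: active means compounds with mean IC50 at or below 50 µM in this heat-shock counterscreen, flagging likely artifacts; inactive means the rest.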

The subject of this assay is C. elegans VP596 Phsp-16.2 GFP/RFP heat-shock reporter. Put plainly: inhibitors of hsp-16.2 heat-shock response – whole organism, C. elegans VP596, GFP/RFP ratio fluorescence, counter-screen for SKN-1 inhibitor project, SAR follow-up (AID 651993). (A counterscreen serves to expose hits that act by an unwanted route or on another target.)
What is called IC50 is the point on the concentration scale where inhibition reaches its midpoint. With `c1ccc(-c2csc(-c3ccncc3)n2)cc1`, the IC50 was > 64 µM (inactive).

Turning to `COc1ccc(C(=O)Nc2nc(-c3cccs3)cs2)cc1`, the IC50 was > 64 µM (inactive).

As for `O=C(/C=C/c1cccs1)c1ccc(Br)cc1`, the IC50 is > 64 µM (inactive).

As to `O=C(/C=C/c1ccccc1)Nc1ccc(CN2CCOCC2)cc1`, the IC50 was > 64 µM (inactive).

As to `Cc1nc2ccccc2cc1OCc1ccc(F)cc1`, the IC50 was 9.02 µM.

Turning to `CCOc1cc(CNC2CCCC2)cc(Cl)c1OCc1ccccc1`, the IC50 was > 64 µM (inactive).

Regarding `O=C(/C=C/Nc1ccc(F)cc1F)c1ccco1`, the IC50 is > 64 µM (inactive).

In the case of `Brc1ccc(CSc2nnc(-c3ccco3)o2)cc1`, the IC50 is > 64 µM (inactive).

`O=C(/C=C/c1ccc(Br)cc1)c1ccc(NC2=NCCCS2)cc1`: the IC50 was > 64 µM (inactive).

With `c1ccc2oc(SCc3nc4ccccc4s3)nc2c1`, the IC50 is > 64 µM (inactive).

Consider `CCc1ccc(-c2nc(-c3ccncc3)no2)cc1`, for which the IC50 was > 64 µM (inactive).

`Clc1ccccc1-c1nnc(-c2ccccc2Cl)o1`: the IC50 was > 64 µM (inactive).

For `c1ccc2sc(SCc3ccc(-c4nnco4)cc3)nc2c1`, the IC50 was > 64 µM (inactive).

As to `Fc1ccc(COc2ccc(-c3nnco3)cc2)cc1`, the IC50 is > 64 µM (inactive).

As to `Cc1ccccc1-c1noc(-c2cccs2)n1`, the IC50 was > 64 µM (inactive).

Turning to `O=C(/C=C/Nc1ccc(Br)cc1F)c1ccco1`, the IC50 was > 64 µM (inactive).

Take `Cc1ccc(Nc2nc(-c3cccs3)cs2)nc1`: the IC50 was > 64 µM (inactive).

For the molecule `O=C(Nc1nc2c(ccc3ccccc32)s1)c1ccco1`, the IC50 was > 64 µM (inactive).

On to `Fc1ccc(COc2ccc(-c3nnco3)cc2)c(Cl)c1`, for which the IC50 was > 64 µM (inactive).

`O=C(Nc1nc(-c2ccc(Cl)s2)cs1)c1cccs1`: the IC50 was > 64 µM (inactive).

For the molecule `c1ccc(Nc2nc(-c3cccs3)cs2)nc1`, the IC50 is > 64 µM (inactive).

With `COc1cc(CNC(C)c2ccccc2)cc(Br)c1OCc1ccc(F)cc1` (stereo not drawn), the IC50 is > 64 µM (inactive).

Consider `O=C(Nc1ccc(CN2CCOCC2)cc1)c1cc2ccccc2o1`, for which the IC50 was > 64 µM (inactive).

In the case of `O=C(Nc1nccs1)c1ccc2ccccc2n1`, the IC50 was > 64 µM (inactive).

Turning to `c1ccc(SCc2cc(-c3ccccc3)no2)cc1`, the IC50 was > 64 µM (inactive).

For the molecule `Cc1ccc2nc(-c3ccc(NC(=S)NC4CC(C)(C)NC(C)(C)C4)cc3)sc2c1`, the IC50 was > 64 µM (inactive).

`Clc1ccccc1-c1nc(-c2ccncc2)no1`: the IC50 was > 64 µM (inactive).

Take `CC(C)c1ccc(C(=O)Nc2ccc(CN3CCOCC3)cc2)cc1`: the IC50 is > 64 µM (inactive).

For `Clc1ccc(-c2nnc(-c3ccccc3)o2)c(Cl)c1`, the IC50 was > 64 µM (inactive).

Consider `O=C(Nc1nc(-c2ccccc2)cs1)c1cccs1`, for which the IC50 was > 64 µM (inactive).

Turning to `Cc1oc(-c2ccc(-c3ccccc3)cc2)nc1CN(C)C1CCOC1` (stereo not drawn), the IC50 was > 64 µM (inactive).

On to `Cc1cc(OCc2cccc(Cl)c2)c(C)cc1CN1CCOCC1`, for which the IC50 was > 64 µM (inactive).

As to `O=C(/C=C/Nc1ccccc1F)c1cccs1`, the IC50 is > 64 µM (inactive).

In the case of `O=C(Nc1nc(-c2ccc(Cl)s2)cs1)c1ccco1`, the IC50 was > 64 µM (inactive).

As for `c1ccc(-c2csc(Nc3ccccn3)n2)cc1`, the IC50 was > 64 µM (inactive).

Regarding `CCOc1cc(CNCCSc2nnnn2C)cc(Br)c1OCc1ccc(F)cc1`, the IC50 was > 64 µM (inactive).

For `Cc1ccc(CSc2nnc(-c3ccco3)o2)cc1`, the IC50 is > 64 µM (inactive).

`Fc1ccc(-c2csc(-c3ccncc3)n2)cc1`: the IC50 was > 64 µM (inactive).

Regarding `Cc1ccc(N=C/C(C(=O)C(F)(F)F)=C(\O)c2ccco2)cc1Cl`, the IC50 was > 64 µM (inactive).

As to `Fc1ccc(-c2csc(Nc3ccccn3)n2)cc1`, the IC50 was > 64 µM (inactive).

Consider `Brc1ccc(CSc2nnc(-c3cccnc3)o2)cc1`, for which the IC50 is > 64 µM (inactive).

As for `O=C(/C=C/Nc1ccc(F)cc1F)c1cccs1`, the IC50 is > 64 µM (inactive).

In the case of `COc1cc(CNC2CCCC2)cc(Cl)c1OCc1ccc(F)cc1`, the IC50 was > 64 µM (inactive).

With `Cc1ccc(-c2noc(-c3cccs3)n2)cc1`, the IC50 was > 64 µM (inactive).

For `COc1cc(CNC(C)(C)CO)cc(Br)c1OCc1ccc(Cl)cc1`, the IC50 was > 64 µM (inactive).

As for `Brc1ccc(-c2nc(-c3ccccc3)no2)o1`, the IC50 is > 64 µM (inactive).

Consider `Clc1ccc(-c2nnc(-c3ccco3)o2)cc1`, for which the IC50 was > 64 µM (inactive).

`CCOc1cc(CNC2CCCC2)cc(Cl)c1OCc1ccc(F)cc1`: the IC50 is > 64 µM (inactive).

Turning to `Brc1ccc(-c2nnc(-c3ccco3)o2)cc1`, the IC50 is > 64 µM (inactive).

As to `O=C(/C=C/Nc1ccc(F)c(F)c1)c1cccs1`, the IC50 was > 64 µM (inactive).

Take `O=C(Nc1nc(-c2ccc(Cl)s2)cs1)c1ccccc1`: the IC50 was > 64 µM (inactive).

Turning to `Clc1ccc(Nc2nc(-c3cccs3)cs2)nc1`, the IC50 was > 64 µM (inactive).

With `CSc1cccc(NC(=O)c2cccc3cccnc23)c1`, the IC50 was > 64 µM (inactive).

Turning to `O=C(/C=C/Nc1ccc(F)c(Cl)c1)c1ccco1`, the IC50 was > 64 µM (inactive).

For `c1ccc(-c2nc(-c3ccncc3)no2)cc1`, the IC50 is > 64 µM (inactive).

For the molecule `CCOc1ccc(-c2nc(-c3cccnc3)no2)cc1`, the IC50 was > 64 µM (inactive).

As for `CCOC(=O)Nc1nc(-c2ccc(F)cc2F)cs1`, the IC50 was > 64 µM (inactive).

For `CCOC(=O)c1c(-c2ccc(-c3ccccc3)cc2)csc1NC(=O)CNCCN(C)C`, the IC50 is > 64 µM (inactive).
